Entries after “also recorded” stand apart in the source; their conditions may differ.
What was measured:
Rorγt [1] = biological target: T1, Rorγt (Mus musculus, UniProt P51450); test: Dual luciferase reporter assay in EL4 cells stably transfected with Rorγt vector; format: cell-based; parameters: expressed in transfected cells; host or cells: EL4 cells, stably transfected; conditions: for Rorγt driven Il17a transcription: 10 μM arachidonic acid
T1 sequence (P51450 1-495 isoform P51450-2): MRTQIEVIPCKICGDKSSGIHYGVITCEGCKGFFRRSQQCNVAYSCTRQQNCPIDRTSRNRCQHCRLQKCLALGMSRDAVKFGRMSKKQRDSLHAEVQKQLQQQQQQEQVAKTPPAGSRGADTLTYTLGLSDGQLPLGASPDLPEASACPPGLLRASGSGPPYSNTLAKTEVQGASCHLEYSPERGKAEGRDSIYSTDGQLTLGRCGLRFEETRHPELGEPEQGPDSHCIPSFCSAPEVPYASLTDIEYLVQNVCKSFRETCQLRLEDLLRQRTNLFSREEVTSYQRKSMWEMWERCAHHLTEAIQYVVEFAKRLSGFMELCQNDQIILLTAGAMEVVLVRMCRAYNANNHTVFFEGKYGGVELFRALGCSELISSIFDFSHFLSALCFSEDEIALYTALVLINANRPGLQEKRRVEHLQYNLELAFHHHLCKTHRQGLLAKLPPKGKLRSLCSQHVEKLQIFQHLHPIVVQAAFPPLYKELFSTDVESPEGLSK
Method: (§1) Lipidome analysis of Th17 cells. (A) WT and CD5L^−/− naïve T cells were differentiated as in FIG. 46B in the presence of cytokines as indicated. Cells and supernatant were harvested at 96 hours and subjected to MS/LC. Three independent mouse experiments were performed. […] (B) Expression of representative metabolites including a cholesterol ester and a PUFA-containing TAG species. FIG. 48 C, D, E, F-J show as follows: (C) Metabolomic analysis of independent mouse experiments where T cells were differentiated under various cytokine conditions as indicated and harvested at 48 h and 96 h. (D,E) Rorγt ChIP from Th17 cells differentiated as described in A. under various conditions as indicated. F-K. Dual luciferase reporter assay was performed in EL4 cells stably transfected with a control vector or Rorγt vector. (F, G) CD5L retroviral vector was cotransfected in F and G at 0, 25, 50 and 100 ng/well. […] All ChIP and luciferase assay are representative of at least 3 independent experiments.

Th17 cells [2] = test: qPCR and Nanostring signature analysis of Th17 cells treated with free fatty acids; format: cell-based, mouse
Method: (§2) (A) Naïve T cells were sorted from either WT or IL-23RGFP reporter mice, activated with plate-bound anti-CD3/anti-CD28 and differentiated with TGFβ1+IL-6 for 48 hours. […] (B) Cells from WT and Rorc^−/− mice were sorted, differentiated and treated with FFA as in A. Cells were harvested for RNA purification and qPCR. (C) Naïve WT and CD5L^−/− T cells were differentiated as in A. Cells were then lifted, washed and replated in fresh media with no addition of cytokines and in the presence of control or 5 uM of arachidonic acid (PUFA). Cytokine profile of T cells were measured after PMA/ionomycin restimulation. […] Another 48 hours later, cells were harvested for nanostring analysis (D) or qPCR (E).
Next, the contribution of lipid saturation to Th17 cell pathogenicity was studied.

Rorγt [3] = biological target: T1, Rorγt; test: Rorγt ChIP-PCR in Th17 cells with added SFA or PUFA; format: cell-based; parameters: endogenous in cells; host or cells: wild-type mouse Th17 cells differentiated in vitro from naïve CD4+ T cells; conditions: WT Th17 cells
Method: as §1

Th17 cells [4] = test: FACS of IL-17 and IL-23R.GFP in Th17 cells treated with free fatty acids; format: cell-based, mouse
Method: as §2

Cd5l expression = Cd5l expression by qPCR in TGFβ1+IL-6 Th17 cells expanded with or without IL-23; format: cell-based, mouse; conditions: naïve T cells differentiated with TGFβ1+IL-6 for 48 h, then IL-23 vs PBS in fresh media
Excerpt: FIG. 45A-45H show Single-cell RNA-seq identifies Cd5l as a novel regulator associated with Th17 cell pathogenicity and expressed only by non-pathogenic Th17 cells. Single-cells were sorted from in-vitro Th17 cells differentiated with TGFβ1+IL-6 (A,B), IL-1β+IL-6+IL-23 (C), TGFβ3+IL-6 (D) and in-vivo Th17 cells from CNS of mice at the peak of EAE (score=3) (D). IL-17A.GFP^+ CD4^+ T cells were sorted in all panels in D. (A) Correlation of CD5L expression in non-pathogenic Th17 cells with the pathogenic signature (Lee, Awasthi et al.). (B) Principal Component Analysis of CD5L expression where the direction of PC1 correlates with pathogenicity. (C, D) Histogram of CD5L expression in single-cell from conditions as indicated. CD5L expression in vitro is validated by qPCR (E, F) and flow cytometry (G). […] CD5L expression was measured by qPCR at 48 h (E) and 72 h (F) and intracellularly by flow cytometry at 48 h (G); (F) At 48 h, cells were lifted from plate, washed and replated in fresh media with IL-23 or PBS and cultured for additional 24 h. […] Cd5l and Il17a expression are measured by qPCR. […] I. IL-17^+ (GFP^+) and IL-17^− (GFP^−) CD4^+ cells were sorted from the gut of naïve mice and the number of RNA transcripts measured by nanostring and normalized based on four house-keeping genes. […]

CCCCC/C=C\C/C=C\C/C=C\C/C=C\CCCC(=O)O [PUFA, arachidonic acid]
Il10 transactivation (Rorγt [1]; added to the agonist ligand): enhanced | Rorγt-mediated Il23r transactivation (Rorγt [1]; added to the agonist ligand): almost completely inhibited | Rorγt driven Il17a transcription (Rorγt [1]; cells expressing CD5L): but not in those expressing CD5L | Rorγt driven Il17a transcription (Rorγt [1]; control cells): decreased | 316 gene signature of Th17 cell differentiation and function (Th17 cells [2]; CD5L−/− Th17 cells (TGFβ1+IL-6), 5 uM arachidonic acid, Nanostring nCounter): resemble WT non-pathogenic Th17 cells | Il22 expression (Th17 cells [2]; qPCR): increased | expression of key pathogenicity signature genes Il10, Il23r, Ccl5, Csf2 and Lag3 (Th17 cells [2]; qPCR): reciprocally regulated | effect on Il17 and Il23r expression in Rorγt−/− Th17 cells (Th17 cells [2]; qPCR, Rorγt−/− cells): abolished | Rorγt binding to the Il10 CNS-9 region (Rorγt [3]): significantly increased; also recorded: enhanced | percentage of IL-17+ CD4+ T cells (Th17 cells [4]; CD5L−/− Th17 cells, non-pathogenic condition, 5 uM arachidonic acid): reduced percentage | percentage of IL-23R.GFP+ CD4 T cells (Th17 cells [4]; IL-23RGFP reporter Th17 (TGFβ1+IL-6) expanded with IL-23, 10 uM arachidonic acid or 20 uM palmitic acid, 48 h, FACS): suppressed | percentage of IL-17+ CD4 T cells (Th17 cells [4]; WT Th17 (TGFβ1+IL-6) expanded with IL-23, 10 uM arachidonic acid or 20 uM palmitic acid, 48 h, FACS): suppressed

B1: IL-23: proinflammatory cytokine; recombinant mouse IL-23 (protein, UniProt Q9EQ14 22-196; P43432 23-335, looked up)
Interleukin-23 subunit alpha: VPRSSSPDWAQCQQLSRNLCMLAWNAHAPAGHMNLLREEEDEETKNNVPRIQCEDGCDPQGLKDNSQFCLQRIRQGLAFYKHLLDSDIFKGEPALLPDSPMEQLHTSLLGLSQLLQPEDHPRETQQMPSLSSSQQWQRPLLRSKILRSLQAFLAIAARVFAHGAATLTEPLVPTA
Interleukin-12 subunit beta: MWELEKDVYVVEVDWTPDAPGETVNLTCDTPEEDDITWTSDQRHGVIGSGKTLTITVKEFLDAGQYTCHKGGETLSHSHLLLHKKENGIWSTEILKNFKNKTFLKCEAPNYSGRFTCSWLVQRNMDLKFNIKSSSSSPDSRAVTCGMASLSAEKVTLDQRDYEKYSVSCQEDVTCPTAEETLPIELALEARQQNKYENYSTSFFIRDIIKPDPPKNLQMKPLKNSQVEVSWEYPDSWSTPHSYFSLKFFVRIQRKKEKMKETEEGCNQKGAFLVEKTSTEVQCKGGNVCVQAQDRYYNSSCSKWACVPCRVRS
Cd5l expression (Cd5l expression): significantly suppressed
